Assay results published in article PMC11649397, “The study of halogen effect on the reactivity of the serine-targeting covalent warheads” (Frontiers in Chemistry, 2024).

Target: T1, hCES1A (Homo sapiens, UniProt P23141)
T1 sequence (P23141 18-567): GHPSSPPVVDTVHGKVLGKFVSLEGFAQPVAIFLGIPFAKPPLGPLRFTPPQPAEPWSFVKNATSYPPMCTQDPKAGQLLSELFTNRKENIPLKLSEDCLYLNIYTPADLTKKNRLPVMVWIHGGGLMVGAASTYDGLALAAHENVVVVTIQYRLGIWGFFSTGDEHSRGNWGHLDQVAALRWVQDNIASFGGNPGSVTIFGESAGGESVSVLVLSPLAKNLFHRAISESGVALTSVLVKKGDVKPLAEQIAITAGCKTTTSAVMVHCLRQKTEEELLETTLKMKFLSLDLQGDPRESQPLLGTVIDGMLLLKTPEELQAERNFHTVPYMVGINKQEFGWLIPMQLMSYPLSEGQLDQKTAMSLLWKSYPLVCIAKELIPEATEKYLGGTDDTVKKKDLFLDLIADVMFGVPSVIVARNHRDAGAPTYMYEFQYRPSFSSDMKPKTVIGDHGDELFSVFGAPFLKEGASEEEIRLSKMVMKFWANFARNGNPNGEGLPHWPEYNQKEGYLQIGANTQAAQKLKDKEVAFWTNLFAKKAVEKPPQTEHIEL
Assay: Co-crystallography with hCES1A
Assay type: binding
Settings: 1:5 molar ratio
Protocol: Purified hCES1A incubated with F-3 and F-4 at 1:5 M ratio for 1 h at 18°C. Crystallisation screening was performed using commercially available kit sets using sitting drop vapor diffusion at 16°C. Both diffraction-quality crystals were obtained from the condition containing 14.4% peg8000 (w/v), 0.1M MES 6.4, 0.3M CaAc and 20% glycerol. Crystals were flash cooled in liquid nitrogen after cryoprotection in 25% glycerin. Date was collected on 02U1 at Shanghai Synchrotron Radiation Facility (SSRF). Data images were processed using program HKL2000. ([Otwinowski and Minor, 1997]). Crystal structures were solved using molecular replacement with the Phenix software suite using unbound hces1a (Protein Data Bank [PDB] accession number 1MX1 as the search model. Structure refinement was performed using Phenix. ([Adams et al., 2010]). The program COOT was used for manual rebuilding. ([Emsley and Cowtan, 2004]). Molecular graphics images were generated using CCP4MG. ([McNicholas et al., 2011]). […]
fluorogenic probe. 4 Briefly, the incubation mixtures (0.1 mL) contained Tris-HCl buffer, hPL solution (0.25 μg/mL, final concentration), porcine bile salt (0.1 mg/mL, final concentration) and each inhibitor (with different concentrations). […] The fluorescent signals of hydrolytic product were quantified by using the microplate reader (Spectra Max M4, Austria), with the wavelength of 600 nm and 660 nm for excitation and emission, respectively. […]
OPTS, a known fluorogenic probe, was used as the substrate to assess the residual activities of Notum in the presence of each tested compound. […] After preincubated at 37 °C for 1 min, OPTS was added to initiate the hydrolytic reaction and the multi-mode microplate reader (SpectraMax iD3, Molecular Devices, Austria) was used to analyze the florescence signals of the […]
The F-3, F-4, F-10-bound peptides was analysed using the nanoLC-MS/MS system, respectively.6 The purified hCES1A (150 μg, final content) was co-incubated with the small molecule inhibitor F-3/ F-4/ F-10 (100 μM, final concentration) at 4 °C and 25 °C, respectively, for 4h. […]

O=C(c1ccccc1)C(F)(F)F [F, 2,2,2-trifluoroacetophenone]
covalent binding mode at the catalytic triad (Ser221) in co-crystal: failed to result in similar covalent interactions
